In patent US12290497B2, “Agent containing 4-phenylbutyrate, for preventing or treating presbyopia” (SANTEN PHARMACEUTICAL CO., LTD., priority 2018, dated 2025):

Columns and labels:
lens elasticity [1] = assay: Pharmacological Test 2: effect of sodium 4-phenylbutyrate eye drops on lens elasticity; assay type: in vivo, C57BL/6J mice; details: 3 times per day for 12 to 15 days; for Lens elasticity improvement: 2.5 μL/eye, 8-month-old mice, vs vehicle control
Description: The effect of sodium 4-phenylbutyrate on the lens elasticity was examined. A vehicle comprising 0.1% (w/v) of ethyl pyruvate, 0.269% (w/v) of sodium dihydrogenphosphate monohydrate (NaH2PO4H2O), 0.433% (w/v) of disodium hydrogenphosphate (Na2HPO4), 0.2% (w/v) of hydroxypropyl methylcellulose, 0.5% (w/v) of NaCl was prepared. Sodium 4-phenylbutyrate was sonicated with the addition of the vehicle to prepare a 1.5% (w/v) solution. The resulting 1.5% (w/v) solution was diluted with the vehicle to prepare a 0.5% (w/v) solution. Further, the resulting 0.5% (w/v) solution was diluted with the vehicle to prepare a 0.15% (w/v) solution. The total amount of each sample to be used in one day was prepared before use. EV06 was sonicated with the addition of the vehicle to prepare a 1.5% (w/v) solution. The total amount of the sample to be used in one day was prepared before use. 1) Each test sample (2.5 μL/eye) was instilled into the right eye of 8-month-old C57BL/6J mice with a Pipetman 3 times per day (around 9:00, 13:00 and 17:00) for 12 to 15 days. 2) After the final instillation, the mice were euthanized by carbon dioxide inhalation, and then the eyeballs were extracted and rinsed with Hank's balanced salt solution (HBSS). 3) The sclera near the optic nerve was cut with a razor, the lens was removed through the incision, and the removed lens was immersed in HESS. 4) The lens was placed on a glass slide, and an all-in-one fluorescence microscope BZ-9000 (Keyence) was used to capture an image of the lens (Image a). 5) Next, one cover glass (Corning^(registered trade mark) 22×22 mm Square) was placed on the lens, and an image in which the thickness of the lens changed due to the weight was similarly captured (Image b). 6) A change in the lens diameter was calculated from Equation 1 wherein the lens diameter of Image a is subtracted from the lens diameter of Image b, as described below. Then, the lens elasticity improvement of each sample group compared with the vehicle control group was calculated from Equation 2 described below. The mean of the vehicle control group was based on 4 eyes, the mean of each sodium 4-phenylbutyrate sample group and the mean of the EV06 sample group were based on 9-10 eyes. Change in lens diameter=Lens diameter in Image b of each test sample−Lens diameter in Image a of each test sample (Equation 1) Lens elasticity improvement of each sample group=Mean change in lens diameter of each Test sample group−Mean change in lens diameter of Vehicle control group (Equation 2) (Results)

lens elasticity [2] = assay: Pharmacological Test 3: effect of once-daily instillation of sodium 4-phenylbutyrate for 2 weeks on lens elasticity; assay type: in vivo, C57BL/6J mice; details: for Lens elasticity improvement: 2.5 μL/eye, vs vehicle control
Description: The effect of once-daily instillation of sodium 4-phenylbutyrate for 2 weeks on the lens elasticity was examined. A vehicle comprising 0.1% (w/v) of ethyl pyruvate, 0.269% (w/v) of sodium dihydrogenphosphate monohydrate (NaH2PO4H2O), 0.433% (w/v) of disodium hydrogenphosphate (Na2HPO4), 0.2% (w/v) of hydroxypropyl methylcellulose, and 0.5% (w/v) of NaCl was prepared. Sodium 4-phenylbutyrate was dissolved with the addition of the vehicle to prepare a 3.0% (w/v) solution. The resulting 3.0% (w/v) solution was diluted with the vehicle to prepare a 1.0% (w/v) solution. Further, the resulting 1.0% (w/v) solution was diluted with the vehicle to prepare a 0.3% (w/v) solution. The total amount of each sample to be used in one day was prepared before use. EV06 was sonicated with the addition of the vehicle to prepare a 1.5% (w/v) solution. The total amount of the sample to be used in one day was prepared before use. 1) Each test sample (2.5 μL/eye) was instilled into the right eye of 8-month-old C57BL/6J mice with a Pipetman once per day (QD; around 9:00) or 3 times per day (TID; around 9:00, 13:00 and 17:00) for 14 days. 2) After the final instillation, the mice were euthanized by carbon dioxide inhalation, and then the eyeballs were extracted and rinsed with Hank's balanced salt solution (HBSS). 3) The sclera near the optic nerve was cut with a razor, the lens was removed through the incision, and the removed lens was immersed in HBSS. 4) The lens was placed on a glass slide, and an all-in-one fluorescence microscope BZ-9000 (Keyence) was used to capture an image of the lens (Image a). 5) Next, one cover glass (Corning^(registered trade mark) 22×22 mm Square) was placed on the lens, and an image in which the thickness of the lens changed due to the weight was similarly captured (Image b). 6) A change in the lens diameter was calculated from Equation 1 wherein the lens diameter of Image a is subtracted from the lens diameter of Image b, as described below. Then, the lens elasticity improvement of each sample group compared with the vehicle control group was calculated from Equation 2 described below. The mean of the vehicle control group was based on 5 eyes. The mean of each sodium 4-phenylbutyrate sample group and the mean of each EV06 sample group were based on 9 to 10 eyes. Change in lens diameter=Lens diameter in Image b of each test sample−Lens diameter in Image a of each test sample (Equation 1) Lens elasticity improvement of each sample group=Mean change in lens diameter of each Test sample group−Mean change in lens diameter of Vehicle control group (Equation 2) (Results)

[3] = test system: anterior segment of the eye; assay: Ocular Irritation Test (McDonald-Shadduck method, lens observation, histopathology); assay type: in vivo, Japanese White rabbits
Description: A vehicle (aqueous solution) comprising 0.1% (w/v) of ethyl pyruvate, 0.269% (w/v) of sodium dihydrogenphosphate monohydrate (NaH2PO4H2O), 0.433% (w/v) of disodium hydrogenphosphate (Na2HPO4), 0.2% (w/v) of hydroxypropyl methylcellulose, 0.5% (w/v) of NaCl was prepared.
0.3% (w/v), 1% (w/v), and 3% (w/v) sodium 4-phenylbutyrate ophthalmic liquids were prepared in the same manner as in the above pharmacological tests. These ophthalmic liquids and the vehicle were each instilled into the left eye of Japanese White rabbits at a dose of 50 μL/eye with pipette twice per day at a 6-hour interval for 2 weeks. One hour after the final instillation, ocular irritation of anterior segment of the eye was evaluated according to the McDonald-Shadduck method, and the lens was observed. The contralateral eye was […].
The ocular irritation of anterior segment of the eye was scored according to the following criteria:
+1: mild; +2: moderate; +3: severe.

lens elasticity [4] = assay: Pharmacological Test 1: effect of EV06 eye drops on lens elasticity (lens diameter change under cover glass); assay type: in vivo, C57BL/6J mice; details: 3 times per day for 15 to 17 days; for Lens elasticity improvement: 2.5 μL/eye, 8-month-old mice, vs vehicle control
Description: The effect of lipoic acid choline ester (EV06) on the lens elasticity was examined. The tests were conducted with reference to the methods described in InvestOphthalmol Vis Sci, 57, 2851-2863, 2016. EV06 is a compound represented by the following formula (2): A vehicle comprising 0.1% (w/v) of ethyl pyruvate, 0.269% (w/v) of sodium dihydrogenphosphate monohydrate (NaH2PO4H2O), 0.433% (w/v) of disodium hydrogenphosphate (Na2HPO4), 0.2% (w/v) of hydroxypropyl methylcellulose, and 0.5% (w/v) of NaCl was prepared. EV06 was sonicated with the addition of the vehicle to prepare a 5% (w/v) suspension. The resulting 5% (w/v) suspension was diluted with the vehicle to prepare a 1.5% (w/v) solution. Further, the resulting 1.5% (w/v) solution was diluted with the vehicle to prepare a 0.5% (w/v) solution. The total amount of each sample to be used in one day was prepared before use. 1) Each test sample (2.5 μL/eye) was instilled into the right eye of 8-month-old C57BL/6J mice with a Pipetman 3 times per day (around 9:00, 13:00 and 17:00) for 15 to 17 days. 2) After the final instillation, the mice were euthanized by carbon dioxide inhalation, and then the eyeballs were extracted and rinsed with Hank's balanced salt solution (HBSS). 3) The sclera near the optic nerve was cut with a razor, the lens was removed through the incision, and the removed lens was immersed in HESS. 4) The lens was placed on a glass slide, and an all-in-one fluorescence microscope BZ-9000 (Keyence) was used to capture an image of the lens (Image a). 5) Next, one cover glass (Corning^(registered trade mark) 22×22 mm Square) was placed on the lens, and an image in which the thickness of the lens changed due to the weight was similarly captured (Image b). 6) A change in the lens diameter was calculated from Equation 1 wherein the lens diameter of Image a is subtracted from the lens diameter of Image b, as described below. Then, the lens elasticity improvement of each sample group compared with the vehicle control group was calculated from Equation 2 described below. The mean of the vehicle control group was based on 6 eyes and the mean of each EV06 sample group was based on 12 eyes. Change in lens diameter=Lens diameter in Image b of each test sample−Lens diameter in Image a of each test sample (Equation 1) Lens elasticity improvement of each sample group=Mean change in lens diameter of each EV06 sample group−Mean change in lens diameter of Vehicle control group (Equation 2) (Results)

Compound | Lens elasticity improvement (lens elasticity [1]; 0.15% (w/v) sample) [μm] | Lens elasticity improvement (lens elasticity [1]; 0.5% (w/v) sample) [μm] | Lens elasticity improvement (lens elasticity [1]; 1.5% (w/v) sample) [μm] | Lens elasticity improving effect compared with EV06 at the same concentration (lens elasticity [1]; 1.5% sample group) | Lens elasticity improving effect (in words) (lens elasticity [1]; all of the 0.15%, 0.5%, and 1.5% groups) | Lens elasticity improvement (lens elasticity [2]; 0.3% (w/v) sample, once per day (QD) for 14 days) [μm] | Lens elasticity improvement (in words) (lens elasticity [2]; 0.3%, 1% and 3% samples instilled once-daily for 14 days) | Lens elasticity improvement (lens elasticity [2]; 1.0% (w/v) sample, once per day (QD) for 14 days) [μm] | Lens elasticity improvement (lens elasticity [2]; 3.0% (w/v) sample, once per day (QD) for 14 days) [μm] | Lens elasticity improvement compared with 1.5% EV06 (lens elasticity [2]; concentrations 1.0% and 3.0%, once-daily for 14 days) | Overall safety of ophthalmic liquids (in words) ([3]; ophthalmic liquids, rabbit 2-week instillation) | Histopathological examination of the eyes (in words) ([3]; rabbit, in vivo) | Observation of ocular irritation of anterior segment of the eye and lens observation (in words) ([3]; rabbit, in vivo) | Lens elasticity improvement (lens elasticity [4]; 0.5% (w/v) sample) [μm] | Lens elasticity improvement (lens elasticity [4]; 1.5% (w/v) sample) [μm] | Lens elasticity improvement (lens elasticity [4]; 5% (w/v) sample) [μm] | Lens elasticity improving effect (in words) (lens elasticity [4]; all of the 0.5%, 1.5%, and 5% groups) | Lens elasticity improvement (lens elasticity [2]; 1.5% (w/v) sample, 3 times per day (TID) for 14 days) [μm] | Lens elasticity improvement (lens elasticity [2]; 1.5% (w/v) sample, once per day (QD) for 14 days) [μm]
O=C([O-])CCCc1ccccc1.[Na+] [sodium 4-phenylbutyrate] | 38.1 | 47.5 | 51.4 | stronger than that of EV06 | potent lens elasticity improving effect | 25.6 | potent lens elasticity improvement | 30.6 | 48.1 | more potent lens elasticity improvement compared with 1.5% EV06 | highly safe | showed no abnormal findings | no abnormal findings were observed | – | – | – | – | – | –
C[N+](C)(C)CCOC(=O)CCCC[C@@H]1CCSS1.[Cl-] [EV06, lipoic acid choline ester] | – | – | 49.0 | – | – | – | – | – | – | – | – | – | – | 28.8 | 47.3 | 48.7 | increased lens diameter compared with the vehicle control group | 47.9 | 21.6
